The source made the active and inactive calls. The rule behind the calls is not given here.
What was measured:
Sialidase = molecular target: T1, Sialidase (Clostridium perfringens, UniProt P10481); assay: Inhibition of Clostridium perfringens neuraminidase
T1 sequence (P10481 whole entry): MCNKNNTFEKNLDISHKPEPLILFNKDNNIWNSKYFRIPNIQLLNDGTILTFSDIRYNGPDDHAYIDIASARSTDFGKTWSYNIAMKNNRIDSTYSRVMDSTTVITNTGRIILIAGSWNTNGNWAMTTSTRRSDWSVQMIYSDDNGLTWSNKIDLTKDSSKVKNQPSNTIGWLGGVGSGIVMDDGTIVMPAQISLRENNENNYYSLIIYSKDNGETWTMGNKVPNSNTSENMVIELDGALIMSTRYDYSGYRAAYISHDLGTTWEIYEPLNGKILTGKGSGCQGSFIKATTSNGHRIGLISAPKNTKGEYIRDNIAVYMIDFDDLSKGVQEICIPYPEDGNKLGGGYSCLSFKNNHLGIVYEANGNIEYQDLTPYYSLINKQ

[1] = molecular target: T2, Sialidase (Clostridium perfringens) (UniProt P10481); assay: Inhibition of Clostridium perfringens neuraminidase at 100 ug/mL
T2 sequence (whole entry): T1 sequence (P10481 whole entry)

Compound	IC50 (Sialidase) [nM]	Activity [1]
CC(C)=CCC[C@@H](C)[C@H]1CC[C@@]2(C(=O)O)C3=C(CC[C@]12C)[C@@]1(C)CC[C@H](O[C@@H]2O[C@H](C(=O)O)[C@@H](O[C@@H]4O[C@H](C(=O)O)[C@H](O)[C@H](O[C@@H]5OC[C@H](O)[C@H](O)[C@H]5O)[C@H]4O)[C@H](O)[C@H]2O)C(C)(C)[C@@H]1CC3 [NOBILOSIDE]	489	
COC(=O)[C@H]1O[C@@H](O[C@H]2[C@H](O)[C@@H](O)[C@H](O[C@H]3CC[C@]4(C)C5=C(CC[C@H]4C3(C)C)[C@]3(C(=O)OC)CC[C@H]([C@H](C)CCC=C(C)C)[C@@]3(C)CC5)O[C@@H]2C(=O)OC)[C@H](O)[C@@H](O[C@@H]2OC[C@H](O)[C@H](O)[C@H]2O)[C@H]1O		inactive

From ChEMBL document CHEMBL1148109, “Nobiloside, a new neuraminidase inhibitory triterpenoidal saponin from the marine sponge Erylus nobilis” (J Nat Prod, 2002)
